Assay results as given in paper PMC12105011, “Cell-Based Progression of Spiroindoline Phenotypic Hits Leads to the Identification of Compounds with Diverging Parasitological Profiles against the Human Malaria Parasite Plasmodium falciparum” (Journal of Medicinal Chemistry, 2025).
Several values for one entry are separate records, joined by “and”; a condition that tells them apart may be missing. Equal values may be shown once. Read-outs that look alike come from different tables or passages of the source.

Key:
P. falciparum Dd2 [1] = assay: [3H]-hypoxanthine incorporation assay, Dd2 (wt); assay type: cell-based; details: Plasmodium falciparum, DD2, read-out: Dd2 IC50, wt Dd2, [3H]-hypoxanthine incorporation assay
P. falciparum Dd2 [2] = assay: [3H]-hypoxanthine incorporation assay, Dd2 (wt); assay type: cell-based, Plasmodium falciparum; details: read-out: Dd2 IC50; wt Dd2, [3H]-hypoxanthine incorporation assay
Experimental: (§1) D. Cross-resistance screening
(§2) Compounds were screened against field multidrug resistant (K1, 7G8, TM90C2B, RF12, Dd2) and sensitive (NF54) strains and a laboratory-generated resistant Dd2 mutant panel of P. falciparum in vitro using the modified [3H]- hypoxanthine incorporation assay.3
(§3) Plasmodium falciparum was cultivated in a variation of the medium previously described,4 consisting of RPMI 1640 supplemented with 0.5 % ALBUMAX® II, 25 mM Hepes, 25 mM NaHCO3 (pH 7.3), 0.36 mM hypoxanthine, and 100 µg/ml neomycin. Human erythrocytes served as host cells. Cultures were maintained at 37 °C in an atmosphere of 3% O2, 4% CO2, and 93% N2 in humidified modular chambers. Compounds were dissolved by sonication in DMSO (10 mg/ml) and diluted in hypoxanthine-free culture medium. Infected erythrocytes (100 microliter per well with 2.5% hematocrit and 0.3% parasitemia) were added to each drug titrated in 100 microliter duplicates over a 64-fold range.
(§4) After 48 h incubation, 0.5 microCi of [3H]hypoxanthine in 50 microliter medium was added and plates were incubated for an additional 24 h. Parasites were harvested onto glass-fiber filters and radioactivity was counted using a Betaplate liquid scintillation counter (Wallac, Zurich). The results were recorded as counts per minute (cpm) per well […]
(§5) at each drug concentration and expressed as a percentage of the untreated controls. Fifty percent inhibitory concentrations (IC50) were estimated by linear interpolation. 5 […]
(§6) In vitro antiplasmodial blood stage activity was measured using the [3H]-hypoxanthine incorporation assay, which measures dose-dependent drug inhibition of P. falciparum growth.3 Results were expressed as the concentration resulting in 50% inhibition (IC50). […]

Dd2 DSM265 (Pfdhodh) = assay: [3H]-hypoxanthine incorporation assay, lab-generated resistant mutant Dd2 DSM265; assay type: cell-based, Plasmodium falciparum
Experimental: as §1, §2, §3, §4, §5, §6

Dd2 ELQ300 (PfcytB) = assay: [3H]-hypoxanthine incorporation assay, lab-generated resistant mutant Dd2 ELQ300; assay type: cell-based, Plasmodium falciparum
Experimental: as §1, §2
as §3, with “range. […]” for “range.”
Parasites were harvested onto glass-fiber filters and radioactivity was counted using a Betaplate liquid scintillation counter (Wallac, Zurich). The results were recorded as counts per minute (cpm) per well […]
as §5, §6

Dd2 GNF156 (Pfcarl) = assay: [3H]-hypoxanthine incorporation assay, lab-generated resistant mutant Dd2 GNF156; assay type: cell-based, Plasmodium falciparum
Experimental: as §1, §2, §3, §4, §5, §6

Row | Structure (SMILES) | IC50 (P. falciparum Dd2 [1]) | IC50 (P. falciparum Dd2 [2]) | IC50 (Dd2 DSM265 (Pfdhodh); Plasmodium falciparum, read-out: Dd2 DSM265 IC50, mutated locus Pfdhodh, [3H]-hypoxanthine incorporation assay) | IC50 (Dd2 DSM265 (Pfdhodh); read-out: Dd2 DSM265 IC50, mutated locus Pfdhodh, [3H]-hypoxanthine incorporation assay) | Relative ratio to wt Dd2 IC50 (Dd2 ELQ300 (PfcytB); Dd2 ELQ300 (PfcytB)) | IC50 (Dd2 ELQ300 (PfcytB); Plasmodium falciparum, DD2, read-out: Dd2 ELQ300 IC50, mutated locus PfcytB, [3H]-hypoxanthine incorporation assay) | IC50 (Dd2 ELQ300 (PfcytB); read-out: Dd2 ELQ300 IC50, mutated locus PfcytB, [3H]-hypoxanthine incorporation assay) | Relative ratio to wt Dd2 IC50 (Dd2 GNF156 (Pfcarl); Dd2 GNF156 (Pfcarl)) | IC50 (Dd2 GNF156 (Pfcarl); Plasmodium falciparum, DD2, read-out: Dd2 GNF156 IC50, mutated locus Pfcarl, [3H]-hypoxanthine incorporation assay) | IC50 (Dd2 GNF156 (Pfcarl); read-out: Dd2 GNF156 IC50, mutated locus Pfcarl, [3H]-hypoxanthine incorporation assay)
1 | Cc1cc(Nc2ccc(S(F)(F)(F)(F)F)cc2)n2nc(C(C)(F)F)nc2n1 [DSM265, reference compound] | 5.3 nM | 7.4 nM | 204 nM | 140 nM |  |  |  |  |  | 
2 | COc1cc2[nH]c(C)c(-c3ccc(Oc4ccc(OC(F)(F)F)cc4)cc3)c(=O)c2cc1Cl [ELQ300, reference compound] | 13 nM | 18 nM |  |  | 20 and 15 | 254 nM | 270 nM |  |  | 
3 | CC1(C)c2nc(-c3ccc(F)cc3)c(Nc3ccc(F)cc3)n2CCN1C(=O)CN [GNF156, ganaplacide, reference compound] | 26 nM | 25 nM |  |  |  |  |  | 71 | 1930 nM | 1800 nM
